Reference: patent publication US7906540B2, “Non-nucleoside reverse transcriptase inhibitors” (Roche Palo Alto LLC, priority 2007, dated 2011)
Where a name gives a salt, the structure may show the parent alone.

Test system: HXB2-strain of HIV
Experiment: Antiviral assay: protection of HIV-infected MT4 cells from virus-mediated cell death (MTT)
Type: cell-based
Conditions: Human immunodeficiency virus 1, HXB2, MT4, 120 h, read-out: Antiviral Assay IC50
Procedure: Anti-HIV antiviral activity was assessed using an adaptation of the method of Pauwels et al. (J. Virol. Methods 1988 20:309-321). The method is based on the ability of compounds to protect HIV-infected T lymphoblastoid cells (MT4 cells) from cell-death mediated by the infection. The endpoint of the assay was calculated as the concentration of compound at which the cell viability of the culture was preserved by 50% (‘50% inhibitory concentration’, IC50). The cell viability of a culture was determined by the uptake of soluble, yellow 3-[4,5-dimethylthiazol-2-yl]-2,5-diphenyltetrazolium bromide (MTT) and its reduction to a purple insoluble formazan salt. After solubilization, spectrophotometric methods were employed to measure the amount of formazan product. […]
A fresh solution of 5 mg/mL MTT was prepared in 0.01 M phosphate buffered saline, pH 7.2 and 20 microliters added to each culture. […] When the formazan deposit was fully solubilized by further mixing, the absorbance (OD) of the cultures was measured at 540 nm and 690 nm wavelength (690 nm readings were used as blanks for artifacts between wells). The percent protection for each treated culture was then calculated from the equation: […]

SMILES	IC50
Cn1c(COc2ccc(Cl)c(Oc3cc(Cl)cc(C#N)c3)c2F)n[nH]c1=O [Compound I-2, 3-Chloro-5-[6-chloro-2-fluoro-3-(4-methyl-5-oxo-4,5-dihydro-1H-[1,2,4]triazol-3-ylmethoxy)-phenoxy]-benzonitrile; formate salt]	1.5 nM
Cn1c(COc2ccc(Br)c(Oc3cc(C#N)cc(C(F)F)c3)c2F)n[nH]c1=O [Compound I-4, 3-[6-Bromo-2-fluoro-3-(4-methyl-5-oxo-4,5-dihydro-1H-[1,2,4]triazol-3-ylmethoxy)-phenoxy]-5-difluoromethyl-benzonitrile; trifluoro-acetic acid salt]	0.7 nM

Test system: not given
Experiment: not given
Conditions: not given

SMILES	melting point
Cn1c(COc2ccc(Cl)cc2C(=O)c2cc(Cl)cc(C#N)c2)n[nH]c1=O	210 to 213.9 °C
Cn1c(COc2ccc(Br)c(Oc3cc(Cl)cc(C#N)c3)c2)n[nH]c1=O	95.2 to 100.7 °C
CCc1ccc(OCc2n[nH]c(=O)n2C)c(F)c1Oc1cc(Cl)cc(C#N)c1	179 to 180 °C
Cn1c(COc2ccc(Br)c(F)c2Oc2cc(C#N)cc(C(F)F)c2)n[nH]c1=O	193 to 194 °C
CCc1ccc(OCc2n[nH]c(=O)n2C)c(Oc2cc(C#N)cc(C(F)F)c2)c1F	160 to 161 °C
Cn1c(CCc2ccc(Br)c(F)c2Oc2cc(Cl)cc(C#N)c2)n[nH]c1=O	212.4 to 214.2 °C
CCc1cc(C#N)cc(Oc2c(OCc3n[nH]c(=O)n3C)ccc(CC)c2F)c1	164 to 166 °C
CCc1ccc(OCc2n[nH]c(=O)n2C)c(Oc2cc(C#N)cc(C3CC3)c2)c1F	166 to 168 °C
Cn1c(COc2ccc(Br)c(F)c2Oc2cc(C#N)cc(CC(F)(F)F)c2)n[nH]c1=O	197.1 to 202.1 °C
Cn1c(COc2ccc(Cl)c(Oc3cc(Cl)cc(C#N)c3)c2Cl)n[nH]c1=O	224.4 to 225.6 °C
Cn1c(COc2ccc(Cl)cc2Oc2cc(Cl)cc(C#N)c2)n[nH]c1=O	176 to 177 °C
Cn1c(COc2ccc(Cl)c(Oc3cc(C#N)cc(C(F)F)c3)c2F)n[nH]c1=O	184.5 to 185.3 °C
Cn1c(COc2ccc(Br)c(F)c2Oc2cc(Cl)cc(C#N)c2)n[nH]c1=O	192.5 to 193 °C
Cn1c(COc2ccc(Br)c(F)c2Oc2cc(C#N)cc(C#N)c2)n[nH]c1=O	205.5 to 207 °C
Cn1c(CCc2ccc(Br)c(Oc3cc(Cl)cc(C#N)c3)c2F)n[nH]c1=O	186 to 187 °C
Cn1c(COc2ccc(Cl)c(Oc3cc(Cl)cc(C#N)c3)c2F)n[nH]c1=O (as salt: salt) [Compound I-2, 3-Chloro-5-[6-chloro-2-fluoro-3-(4-methyl-5-oxo-4,5-dihydro-1H-[1,2,4]triazol-3-ylmethoxy)-phenoxy]-benzonitrile; formate salt]	221 to 225 °C
Cn1c(COc2ccc(Br)c(Oc3cc(C#N)cc(C(F)F)c3)c2F)n[nH]c1=O (as salt: salt) [Compound I-4, 3-[6-Bromo-2-fluoro-3-(4-methyl-5-oxo-4,5-dihydro-1H-[1,2,4]triazol-3-ylmethoxy)-phenoxy]-5-difluoromethyl-benzonitrile; trifluoro-acetic acid salt]	199.2 to 201 °C
